The values that follow come from patent US8563714B2, “Bridged spiro [2.4] heptane derivatives as ALX receptor and/or FPRL2 agonists” (Actelion Pharmaceuticals Ltd., priority 2009, dated 2013).

One assay concerns the target T1, human FPRL2 (Homo sapiens, UniProt P25089).
T1 construct: expressed in transfected cells; host or cells: HEK293 (HEK293-hFPRL2-Gα16)
T1 sequence (P25089 1-353): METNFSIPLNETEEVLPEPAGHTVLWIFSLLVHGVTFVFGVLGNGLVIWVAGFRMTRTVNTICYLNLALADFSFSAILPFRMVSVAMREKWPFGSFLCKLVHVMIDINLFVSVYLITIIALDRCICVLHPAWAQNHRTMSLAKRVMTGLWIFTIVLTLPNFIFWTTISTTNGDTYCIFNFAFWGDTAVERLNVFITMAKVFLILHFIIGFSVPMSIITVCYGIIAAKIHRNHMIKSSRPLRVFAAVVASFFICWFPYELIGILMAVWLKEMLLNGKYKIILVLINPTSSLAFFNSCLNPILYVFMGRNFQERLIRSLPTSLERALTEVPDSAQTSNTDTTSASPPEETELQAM
Put plainly: Intracellular calcium measurements (FLIPR), agonistic activity in HEK293-hFPRL2-Gα16 cells. It counts as cell-based. Particulars: Fluo-4 calcium FLIPR, normalized to GLY14-Humanin 100 nM. Summed up: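 Peak values after baseline subtraction are expressed relative to 100 nM Gly14-Humanin; compounds diluted in assay buffer from 10 mM DMSO stocks.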
In general terms: Calcium flux is commonly read through the fluorescence of an indicator in the cells.

The target in the next assay is T2, human ALX receptor (Homo sapiens, UniProt P25090).
T2 construct: expressed in transfected cells; host or cells: HEK293 (HEK293-hALXR-Gα16)
T2 sequence (P25090 1-351): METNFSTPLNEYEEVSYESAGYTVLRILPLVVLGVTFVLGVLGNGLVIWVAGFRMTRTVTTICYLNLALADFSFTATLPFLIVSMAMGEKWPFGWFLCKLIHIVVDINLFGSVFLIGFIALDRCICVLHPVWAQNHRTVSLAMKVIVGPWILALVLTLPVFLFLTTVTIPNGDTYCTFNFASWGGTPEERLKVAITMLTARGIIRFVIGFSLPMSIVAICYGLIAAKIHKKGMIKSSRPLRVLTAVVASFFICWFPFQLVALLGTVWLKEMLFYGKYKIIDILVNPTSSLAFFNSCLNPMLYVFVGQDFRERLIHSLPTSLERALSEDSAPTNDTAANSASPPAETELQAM
Put plainly: Intracellular calcium measurements (FLIPR), agonistic activity in HEK293-hALXR-Gα16 cells. Particulars: Fluo-4 calcium FLIPR, normalized to WKYMVm 10 nM. It counts as cell-based. In outline: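 Agonist-induced calcium flux was recorded by FLIPR (488/540 nm) in HEK293-hALXR-Gα16 cells pre-loaded with Fluo-4 AM (1 μM, 60 min, 37°C). Peak signal above baseline, after subtracting buffer addition, was expressed relative to WKYMVm at 10 nM final.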

Turning to `O=C(NCCCCN1CCCC1)C1C(C(=O)Nc2ccc(Br)cn2)C2C=CC1C21CC1` (racemic) [Example 119, (5R*)—N^5-(5-Bromo-pyridin-2-yl)-(6R*)—N^6-(4-pyrrolidin-1-yl-butyl)-(4S*,7R*)-[4,7-ethenylene-spiro[2.4]heptane]-5,6-dicarboxamide], the EC50 amounted to 404 nM on human FPRL2 and 17 nM at human ALX receptor.
As to `O=C(NCCCCN1CCCC1)[C@H]1[C@H](C(=O)Nc2ncc(Br)s2)[C@@H]2C=C[C@H]1C21CC1` (racemic) [Example 120, (5R*)—N^5-(5-Bromo-thiazol-2-yl)-(6R*)—N^6-(4-pyrrolidin-1-yl-butyl)-(4S*,7R*)-[4,7-ethenylene-spiro[2.4]heptane]-5,6-dicarboxamide], the EC50 on human FPRL2 stood at 363 nM; at human ALX receptor, 17 nM.
Regarding `Cc1ccc(NC(=O)[C@H]2[C@H](C(=O)NCCCCN3CCCC3)[C@H]3C=C[C@@H]2C32CC2)nc1` (racemic) [Example 121, (5R*)—N^5-(5-Methyl-pyridin-2-yl)-(6R*)—N^6-(4-pyrrolidin-1-yl-butyl)-(4S*,7R*)-[4,7-ethenylene-spiro[2.4]heptane]-5,6-dicarboxamide], the values for the EC50 at human FPRL2 and at human ALX receptor were 454 nM and 95 nM, respectively.
As to `CCCCCNC(=O)[C@H]1[C@H](C(=O)NCCCCN2CCCC2)[C@H]2C=C[C@@H]1C21CC1` (racemic) [Example 122, (5R*)—N^5-Pentyl-(6R*)—N^6-(4-pyrrolidin-1-yl-butyl)-(4S*,7R*)-[4,7-ethenylene-spiro[2.4]heptane]-5,6-dicarboxamide], the EC50 is 496 nM on human FPRL2 and 79 nM on human ALX receptor.
`Cc1ccc(CNC(=O)[C@H]2[C@H](C(=O)NCCCCN3CCCC3)[C@H]3C=C[C@@H]2C32CC2)cc1` (racemic) [Example 123, (5R*)—N^5-[(4-Methyl-phenyl)-methyl]-(6R*)—N^6-(4-pyrrolidin-1-yl-butyl)-(4S*,7R*)-[4,7-ethenylene-spiro[2.4]heptane]-5,6-dicarboxamide]: the results for the EC50 at human FPRL2 and on human ALX receptor were 332 nM and 46 nM, respectively.
In the case of `COC(=O)CCNC(=O)[C@H]1[C@H](C(=O)NCCCCN2CCCC2)[C@H]2C=C[C@@H]1C21CC1` (racemic) [Example 124, (5R*)—N^5-(2-Methoxycarbonyl-ethyl)-(6R*)—N^6-(4-pyrrolidin-1-yl-butyl)-(4S*,7R*)-[4,7-ethenylene-spiro[2.4]heptane]-5,6-dicarboxamide], the EC50 came out at 1150 nM on human FPRL2 and 52 nM at human ALX receptor.
As to `O=C(NCCCCN1CCCC1)[C@H]1[C@H](C(=O)NCC2CCCCC2)[C@@H]2C=C[C@H]1C21CC1` (racemic) [Example 125, (5R*)—N^5-(Cyclohexyl-methyl)-(6R*)—N^6-(4-pyrrolidin-1-yl-butyl)-(4S*,7R*)-[4,7-ethenylene-spiro[2.4]heptane]-5,6-dicarboxamide], the EC50 on human FPRL2 is 268 nM; on human ALX receptor it was 60 nM.
For `CC(=O)CCCCNC(=O)[C@H]1[C@H](C(=O)NCCCCN2CCCC2)[C@H]2C=C[C@@H]1C21CC1` (racemic) [Example 127, (5R*)—N^5-(5-oxo-hexyl)-(6R*)—N^6-(4-pyrrolidin-1-yl-butyl)-(4S*,7R*)-[4,7-ethenylene-spiro[2.4]heptane]-5,6-dicarboxamide] the same measures were 2740 nM and 95 nM.
For `O=C(NCCCCN1CCCC1)[C@H]1[C@H](C(=O)Nc2ncc([N+](=O)[O-])s2)[C@@H]2C=C[C@H]1C21CC1` (racemic) [Example 128, (5R*)—N^5-(5-Nitro-thiazol-2-yl)-(6R*)—N^6-(4-pyrrolidin-1-yl-butyl)-(4S*,7R*)-[4,7-ethenylene-spiro[2.4]heptane]-5,6-dicarboxamide], the EC50 on human FPRL2 was determined as 3440 nM; at human ALX receptor, 120 nM.

One may read the EC50 as the concentration that produces a half-maximal response.
